Test results from patent US11254663B2 (BRISTOL-MYERS SQUIBB COMPANY, priority 2019, dated 2022).

biological target: FXR (Homo sapiens (Human), UniProt Q96RI1); assay: transient human FXR/Gal4-luciferase reporter assay; format: cell-based; details: Gal4-hFXR fusion construct, HEK293 reporter cells; response relative to 8 μM GW-4064
Summary of the method: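 Compound exposure ran overnight at 37 °C and activity was measured as luminescence with Steady-Glo reagent. The cells were a HEK293 line stably expressing firefly luciferase under five Gal4 response elements. They were transiently transfected, one night beforehand, with a plasmid encoding Gal4 DNA-binding domain fused to the human FXR ligand-binding domain.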

FXR, sequence (Q96RI1 262-486): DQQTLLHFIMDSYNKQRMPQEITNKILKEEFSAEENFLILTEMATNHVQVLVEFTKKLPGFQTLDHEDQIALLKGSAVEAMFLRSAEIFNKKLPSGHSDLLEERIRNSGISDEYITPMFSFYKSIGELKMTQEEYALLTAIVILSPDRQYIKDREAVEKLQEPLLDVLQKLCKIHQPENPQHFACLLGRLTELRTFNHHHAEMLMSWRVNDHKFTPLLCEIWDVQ

Row | SMILES | EC50 [nM]
1 | Cc1cnn2c(-c3cccc(N(CC45CCC(c6nc(C7CC7)no6)(CC4)CC5)C(=O)C45CC(F)(C4)C5)c3)cnc2c1 [Example 319, N-((4-(3-cyclopropyl-1,2,4-oxadiazol-5-yl)bicyclo[2.2.2]octan-1-yl)methyl)-3-fluoro-N-(3-(7-methylimidazo[1,2-b]pyridazin-3-yl)phenyl)bicyclo[1.1.1]pentane-1-carboxamide] | 161
2 | Cc1cn2cc(-c3cccc(N(CC45CCC(c6nc(C7CC7)no6)(CC4)CC5)C(=O)C45CC(F)(C4)C5)c3)c(C)cc2n1 [Example 320, N-((4-(3-cyclopropyl-1,2,4-oxadiazol-5-yl)bicyclo[2.2.2]octan-1-yl)methyl)-N-(3-(2,7-dimethylimidazo[1,2-a]pyridin-6-yl)phenyl)-3-fluorobicyclo[1.1.1]pentane-1-carboxamide] | 493
3 | Cc1nc2c(C(F)(F)F)cc(-c3cccc(N(CC45CCC(c6nc(C7CC7)no6)(CC4)CC5)C(=O)C45CC(F)(C4)C5)c3)cn2n1 [Example 321, N-((4-(3-cyclopropyl-1,2,4-oxadiazol-5-yl)bicyclo[2.2.2]octan-1-yl)methyl)-3-fluoro-N-(3-(2-methyl-8-(trifluoromethyl)-[1,2,4]triazolo[1,5-a]pyridin-6-yl)phenyl) bicyclo[1.1.1]pentane-1-carboxamide] | 1460
4 | Cc1cn2cc(-c3cccc(N(CC45CCC(c6nc(C7CC7)no6)(CC4)CC5)C(=O)C45CC(F)(C4)C5)c3)cc(C)c2n1 [Example 322, N-((4-(3-cyclopropyl-1,2,4-oxadiazol-5-yl)bicyclo[2.2.2]octan-1-yl)methyl)-N-(3-(2,8-dimethylimidazo[1,2-a]pyridin-6-yl)phenyl)-3-fluorobicyclo[1.1.1]pentane-1-carboxamide] | 270
5 | O=C(N(CC12CCC(c3nc(C4CC4)no3)(CC1)CC2)c1cccc(-c2ccc3nncn3c2)c1)C12CC(F)(C1)C2 [Example 323, N-(3-([1,2,4]triazolo[4,3-a]pyridin-6-yl)phenyl)-N-((4-(3-cyclopropyl-1,2,4-oxadiazol-5-yl)bicyclo[2.2.2]octan-1-yl)methyl)-3-fluorobicyclo[1.1.1]pentane-1-carboxamide] | 1630
6 | Cc1nc2ccc(-c3cccc(N(CC45CCC(c6nc(C7CC7)no6)(CC4)CC5)C(=O)C45CC(F)(C4)C5)c3)cn2n1 [Example 324, N-((4-(3-cyclopropyl-1,2,4-oxadiazol-5-yl)bicyclo[2.2.2]octan-1-yl)methyl)-3-fluoro-N-(3-(2-methyl-[1,2,4]triazolo[1,5-a]pyridin-6-yl)phenyl)bicyclo[1.1.1]pentane-1-carboxamide] | 250
7 | Cc1ccc(-c2cccc(N(CC34CCC(c5nc(C6CC6)no5)(CC3)CC4)C(=O)C34CC(F)(C3)C4)c2)nc1 [Example 325, N-((4-(3-cyclopropyl-1,2,4-oxadiazol-5-yl)bicyclo[2.2.2]octan-1-yl)methyl)-3-fluoro-N-(3-(5-methylpyridin-2-yl)phenyl)bicyclo[1.1.1]pentane-1-carboxamide] | 24
8 | O=C(N(CC12CCC(c3nc(C4CC4)no3)(CC1)CC2)c1cccc(-c2cc(Br)cn3ncnc23)c1)C12CC(F)(C1)C2 [Example 326, N-(3-(6-bromo-[1,2,4]triazolo[1,5-a]pyridin-8-yl)phenyl)-N-((4-(3-cyclopropyl-1,2,4-oxadiazol-5-yl)bicyclo[2.2.2]octan-1-yl)methyl)-3-fluorobicyclo[1.1.1]pentane-1-carboxamide] | 782
9 | Cc1cc(-c2cccc(N(CC34CCC(c5nc(C6CC6)no5)(CC3)CC4)C(=O)C34CC(F)(C3)C4)c2)nc2scnc12 [Example 327, N-((4-(3-cyclopropyl-1,2,4-oxadiazol-5-yl)bicyclo[2.2.2]octan-1-yl)methyl)-3-fluoro-N-(3-(7-methylthiazolo[5,4-b]pyridin-5-yl)phenyl)bicyclo[1.1.1]pentane-1-carboxamide] | 303
10 | N#Cc1cc2c(nc1-c1cccc(N(CC34CCC(c5nc(C6CC6)no5)(CC3)CC4)C(=O)C34CC(F)(C3)C4)c1)CCOC2 [Example 328, N-(3-(3-cyano-7,8-dihydro-5H-pyrano[4,3-b]pyridin-2-yl)phenyl)-N-((4-(3-cyclopropyl-1,2,4-oxadiazol-5-yl)bicyclo[2.2.2]octan-1-yl)methyl)-3-fluorobicyclo[1.1.1]pentane-1-carboxamide] | 339
11 | O=C(N(CC12CCC(c3nc(C4CC4)no3)(CC1)CC2)c1cccc(-c2cnc3cc(Cl)cnn23)c1)C12CC(F)(C1)C2 [Example 329, N-(3-(7-chloroimidazo[1,2-b]pyridazin-3-yl)phenyl)-N-((4-(3-cyclopropyl-1,2,4-oxadiazol-5-yl)bicyclo[2.2.2]octan-1-yl)methyl)-3-fluorobicyclo[1.1.1]pentane-1-carboxamide] | 222
12 | O=C(N(CC12CCC(c3nc(C4CC4)no3)(CC1)CC2)c1cccc(-c2cccn3ccnc23)c1)C12CC(F)(C1)C2 [Example 330, N-((4-(3-cyclopropyl-1,2,4-oxadiazol-5-yl)bicyclo[2.2.2]octan-1-yl)methyl)-3-fluoro-N-(3-(imidazo[1,2-a]pyridin-8-yl)phenyl)bicyclo[1.1.1]pentane-1-carboxamide] | 392
13 | O=C(N(CC12CCC(c3nc(C4CC4)no3)(CC1)CC2)c1cccc(-c2ccc3nc(O)ccc3c2)c1)C12CC(F)(C1)C2 [Example 331, N-((4-(3-cyclopropyl-1,2,4-oxadiazol-5-yl)bicyclo[2.2.2]octan-1-yl)methyl)-3-fluoro-N-(3-(2-hydroxyquinolin-6-yl)phenyl)bicyclo[1.1.1]pentane-1-carboxamide] | 231
14 | O=C1Cc2cc(-c3cccc(N(CC45CCC(c6nc(C7CC7)no6)(CC4)CC5)C(=O)C45CC(F)(C4)C5)c3)ccc2N1 [Example 332, N-((4-(3-cyclopropyl-1,2,4-oxadiazol-5-yl)bicyclo[2.2.2]octan-1-yl)methyl)-3-fluoro-N-(3-(2-oxoindolin-5-yl)phenyl)bicyclo[1.1.1]pentane-1-carboxamide] | 158
15 | CCOc1cnc(-c2cccc(N(CC34CCC(c5nc(C6CC6)no5)(CC3)CC4)C(=O)C34CC(F)(C3)C4)c2)nc1 [Example 333, N-((4-(3-cyclopropyl-1,2,4-oxadiazol-5-yl)bicyclo[2.2.2]octan-1-yl)methyl)-N-(3-(5-ethoxypyrimidin-2-yl)phenyl)-3-fluorobicyclo[1.1.1]pentane-1-carboxamide] | 302
16 | COc1cnc(-c2cccc(N(CC34CCC(c5nc(C6CC6)no5)(CC3)CC4)C(=O)C34CC(F)(C3)C4)c2)nc1 [Example 334, N-((4-(3-cyclopropyl-1,2,4-oxadiazol-5-yl)bicyclo[2.2.2]octan-1-yl)methyl)-3-fluoro-N-(3-(5-methoxypyrimidin-2-yl)phenyl)bicyclo[1.1.1]pentane-1-carboxamide] | 77
17 | O=C(N(CC12CCC(c3nc(C4CC4)no3)(CC1)CC2)c1cccc(-c2ncc(OC(F)F)cn2)c1)C12CC(F)(C1)C2 [Example 335, N-((4-(3-cyclopropyl-1,2,4-oxadiazol-5-yl)bicyclo[2.2.2]octan-1-yl)methyl)-N-(3-(5-(difluoromethoxy)pyrimidin-2-yl)phenyl)-3-fluorobicyclo[1.1.1]pentane-1-carboxamide] | 26
18 | CC(=O)Nc1cn2nc(-c3cccc(N(CC45CCC(c6nc(C7CC7)no6)(CC4)CC5)C(=O)C45CC(F)(C4)C5)c3)ccc2n1 [Example 336, N-(3-(2-acetamidoimidazo[1,2-b]pyridazin-6-yl)phenyl)-N-((4-(3-cyclopropyl-1,2,4-oxadiazol-5-yl)bicyclo[2.2.2]octan-1-yl)methyl)-3-fluorobicyclo[1.1.1]pentane-1-carboxamide] | 1230
19 | O=C(N(CC12CCC(c3nc(C4CC4)no3)(CC1)CC2)c1cccc(-c2ccnc(OC3CC3)n2)c1)C12CC(F)(C1)C2 [Example 337, N-(3-(2-cyclopropoxypyrimidin-4-yl)phenyl)-N-((4-(3-cyclopropyl-1,2,4-oxadiazol-5-yl)bicyclo[2.2.2]octan-1-yl)methyl)-3-fluorobicyclo[1.1.1]pentane-1-carboxamide] | 380
20 | O=C(C1CC(F)(F)C1)N(CC12CCC(c3nc(C4CC4)no3)(CC1)CC2)c1cccc(-c2ccnc(OC3CC3)n2)c1 [Example 338, N-(3-(2-cyclopropoxypyrimidin-4-yl)phenyl)-N-((4-(3-cyclopropyl-1,2,4-oxadiazol-5-yl)bicyclo[2.2.2]octan-1-yl)methyl)-3,3-difluorocyclobutane-1-carboxamide] | 1360
21 | COc1cc(-c2cccc(N(CC34CCC(c5nc(C6CC6)no5)(CC3)OC4)C(=O)C34CC(F)(C3)C4)c2)ccn1 [Example 339, N-((1-(3-cyclopropyl-1,2,4-oxadiazol-5-yl)-2-oxabicyclo[2.2.2]octan-4-yl)methyl)-3-fluoro-N-(3-(2-methoxypyridin-4-yl)phenyl)bicyclo[1.1.1]pentane-1-carboxamide] | 378
22 | COc1cc(-c2ccnc(N(CC34CCC(c5nc(C6CC6)no5)(CC3)CC4)C(=O)C34CC(F)(C3)C4)c2)ccn1 [Example 340, N-((4-(3-cyclopropyl-1,2,4-oxadiazol-5-yl)bicyclo[2.2.2]octan-1-yl)methyl)-3-fluoro-N-(2′-methoxy-[4,4′-bipyridin]-2-yl)bicyclo[1.1.1]pentane-1-carboxamide] | 398
23 | COc1ncc(-c2cccc(N(CC34CCC(c5nnc(C6CC6)o5)(CC3)CC4)C(=O)C34CC(F)(C3)C4)c2)cn1 [Example 341, N-((4-(5-cyclopropyl-1,3,4-oxadiazol-2-yl)bicyclo[2.2.2]octan-1-yl)methyl)-3-fluoro-N-(3-(2-methoxypyrimidin-5-yl)phenyl)bicyclo[1.1.1]pentane-1-carboxamide] | 287
24 | COc1cc(-c2cccc(N(CC34CCC(c5nnc(C6CC6)o5)(CC3)CC4)C(=O)C34CC(F)(C3)C4)c2)ccn1 [Example 342, N-((4-(5-cyclopropyl-1,3,4-oxadiazol-2-yl)bicyclo[2.2.2]octan-1-yl)methyl)-3-fluoro-N-(3-(2-methoxypyridin-4-yl)phenyl)bicyclo[1.1.1]pentane-1-carboxamide] | 120
